Measurements from patent US5770380A (priority 1996, dated 1998).

Target: Horse Cytochrome c (Equus caballus, UniProt P00004)
Assay: Micro calorimetry titration of Cytochrome c
Type: binding
Conditions: micro calorimetry titration (FIG. 9); read-out: association constant (converted)
Source text: FIG. 9 illustrates a micro calorimetry titration of Cytochrome c with a preferred embodiment of the present invention.
Horse Cytochrome c is an electron-transferring protein with a heme prosthetic group. The size of this protein is 12,384 Dalton and the surface is highly positively charged with lysine and arginine residues. For the X-ray crystal structure of Cytochrome c, see: Bushnell, G. W.; Louie, G. D.; Brayer, G. D. J. Mol. Biol. 1990, 214, 585. NMR titration of Cytochrome c with a preferred embodiment of the invention, designated 1 below, was performed under the condition described in FIG. 8 and two of the hyperfine region protons from heme in Cytochrome c, heme 8-CH3 and heme 3-CH3, were followed. […] The direction and the size of shifts are about the same as those of the titration between Cytochrome c and Cytochrome c peroxydase and peak broadening was also observed in the peroxydase titration. For NMR titration of cytochrome c and cytochrome-c peroxydase, see: Satterlee, J. D.; Moench, S. J.; Erman, J. E. Biochemica et Boiphysica Acta 1987, 912, 87-97. FIG. 8 is consistent with 1:1 binding. [drawing 1] Micro calorimetry titration of Cytochrome c with 1 was also performed (see FIG. 9). The association constant was calculated as 136000M^-1 therefore ΔG=-7.0 kcal/mol. As the enthalpy of the binding event is simulated as -5.6 kcal/mol, the entropy portion should be -1.4 kcal/mol. […]

Horse Cytochrome c, sequence (P00004 whole entry): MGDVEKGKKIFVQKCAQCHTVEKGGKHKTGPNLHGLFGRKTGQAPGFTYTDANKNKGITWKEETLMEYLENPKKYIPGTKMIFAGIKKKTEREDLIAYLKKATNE

CCCCOc1c2cc(C(=O)Nc3cc4cc(c3)C(=O)NCC(=O)N[C@@H](CC(=O)O)C(=O)NCC(=O)N[C@@H](CC(=O)O)C(=O)NC4)cc1Cc1cc(C(=O)Nc3cc4cc(c3)C(=O)NCC(=O)N[C@@H](CC(=O)O)C(=O)NCC(=O)N[C@@H](CC(=O)O)C(=O)NC4)cc(c1OCCCC)Cc1cc(C(=O)Nc3cc4cc(c3)C(=O)NCC(=O)N[C@@H](CC(=O)O)C(=O)NCC(=O)N[C@@H](CC(=O)O)C(=O)NC4)cc(c1OCCCC)Cc1cc(C(=O)Nc3cc4cc(c3)C(=O)NCC(=O)N[C@@H](CC(=O)O)C(=O)NCC(=O)N[C@@H](CC(=O)O)C(=O)NC4)cc(c1OCCCC)C2 [compound 1, Calix[4]arenetetracyclicpeptide1]
Kd: 7.35 µM
